Reference: the kinase profiling compilation of Christmann-Franck et al. (2016)

Tests used:
Assay in all cases: KINOMEscan competition binding
EPHA4 (human) = EPHA4 (human) (UniProt P54764); conditions: compound 10.0 µM
TIE1 (human) = TIE1 (human) (UniProt P35590); conditions: compound 10.0 µM
[1] = tested on: KIT (human), P10721 [V559D]; conditions: compound 10.0 µM
TNIK (human) = TNIK (human) (UniProt Q9UKE5); conditions: compound 10.0 µM
CDK16 (human) = CDK16 (human) (UniProt Q00536); conditions: compound 10.0 µM
Sequence of CDK16 (human) (Q00536 whole entry, looked up): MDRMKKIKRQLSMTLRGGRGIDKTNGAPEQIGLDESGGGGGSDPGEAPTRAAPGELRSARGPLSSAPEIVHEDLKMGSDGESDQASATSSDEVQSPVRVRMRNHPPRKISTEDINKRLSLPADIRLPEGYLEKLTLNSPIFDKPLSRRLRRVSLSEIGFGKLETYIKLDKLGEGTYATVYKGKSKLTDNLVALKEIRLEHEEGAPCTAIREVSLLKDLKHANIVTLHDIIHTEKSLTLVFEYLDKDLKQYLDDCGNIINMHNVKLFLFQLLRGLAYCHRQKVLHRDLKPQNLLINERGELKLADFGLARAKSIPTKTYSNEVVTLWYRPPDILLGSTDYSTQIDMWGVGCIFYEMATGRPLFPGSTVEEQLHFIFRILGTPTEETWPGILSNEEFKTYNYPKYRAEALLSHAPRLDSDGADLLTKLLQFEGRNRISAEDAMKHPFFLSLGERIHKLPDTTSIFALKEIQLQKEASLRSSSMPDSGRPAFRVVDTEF

MAP3K9 (human) = MAP3K9 (human) (UniProt P80192); conditions: compound 10.0 µM
CaMK1 (human) = CaMK1 (human) (UniProt Q14012); conditions: compound 10.0 µM
MST4 (human) = MST4 (human) (UniProt Q9P289); conditions: compound 10.0 µM
NEK1 (human) = NEK1 (human) (UniProt Q96PY6); conditions: compound 10.0 µM
MAPK12 (human) = MAPK12 (human) (UniProt P53778); conditions: compound 10.0 µM
PIK3C2B (human) = PIK3C2B (human) (UniProt O00750); conditions: compound 10.0 µM
BMPR1A (human) = BMPR1A (human) (UniProt P36894); conditions: compound 10.0 µM
[2] = biological target: JAK1 JH1 catalytic (human) (UniProt P23458); conditions: compound 10.0 µM
EPHA3 (human) = EPHA3 (human) (UniProt P29320); conditions: compound 10.0 µM
NEK6 (human) = NEK6 (human) (UniProt Q9HC98); conditions: compound 10.0 µM
MAP3K1 (human) = MAP3K1 (human) (UniProt Q13233); conditions: compound 10.0 µM
TAOK1 (human) = TAOK1 (human) (UniProt Q7L7X3); conditions: compound 10.0 µM
CSNK1A1L (human) = CSNK1A1L (human) (UniProt Q8N752); conditions: compound 10.0 µM
[3] = tested on: FLT3 (human), P36888 [K663Q]; conditions: compound 10.0 µM
FLT4 (human) = FLT4 (human) (UniProt P35916); conditions: compound 10.0 µM
CDK13 (human) = CDK13 (human) (UniProt Q14004); conditions: compound 10.0 µM
ERN1 (human) = ERN1 (human) (UniProt O75460); conditions: compound 10.0 µM
PAK2 (human) = PAK2 (human) (UniProt Q13177); conditions: compound 10.0 µM
BMX (human) = BMX (human) (UniProt P51813); conditions: compound 10.0 µM
MAP4K2 (human) = MAP4K2 (human) (UniProt Q12851); conditions: compound 10.0 µM
SNRK (human) = SNRK (human) (UniProt Q9NRH2); conditions: compound 10.0 µM
ROS1 (human) = ROS1 (human) (UniProt P08922); conditions: compound 10.0 µM
Sequence of ROS1 (human) (P08922 whole entry, looked up): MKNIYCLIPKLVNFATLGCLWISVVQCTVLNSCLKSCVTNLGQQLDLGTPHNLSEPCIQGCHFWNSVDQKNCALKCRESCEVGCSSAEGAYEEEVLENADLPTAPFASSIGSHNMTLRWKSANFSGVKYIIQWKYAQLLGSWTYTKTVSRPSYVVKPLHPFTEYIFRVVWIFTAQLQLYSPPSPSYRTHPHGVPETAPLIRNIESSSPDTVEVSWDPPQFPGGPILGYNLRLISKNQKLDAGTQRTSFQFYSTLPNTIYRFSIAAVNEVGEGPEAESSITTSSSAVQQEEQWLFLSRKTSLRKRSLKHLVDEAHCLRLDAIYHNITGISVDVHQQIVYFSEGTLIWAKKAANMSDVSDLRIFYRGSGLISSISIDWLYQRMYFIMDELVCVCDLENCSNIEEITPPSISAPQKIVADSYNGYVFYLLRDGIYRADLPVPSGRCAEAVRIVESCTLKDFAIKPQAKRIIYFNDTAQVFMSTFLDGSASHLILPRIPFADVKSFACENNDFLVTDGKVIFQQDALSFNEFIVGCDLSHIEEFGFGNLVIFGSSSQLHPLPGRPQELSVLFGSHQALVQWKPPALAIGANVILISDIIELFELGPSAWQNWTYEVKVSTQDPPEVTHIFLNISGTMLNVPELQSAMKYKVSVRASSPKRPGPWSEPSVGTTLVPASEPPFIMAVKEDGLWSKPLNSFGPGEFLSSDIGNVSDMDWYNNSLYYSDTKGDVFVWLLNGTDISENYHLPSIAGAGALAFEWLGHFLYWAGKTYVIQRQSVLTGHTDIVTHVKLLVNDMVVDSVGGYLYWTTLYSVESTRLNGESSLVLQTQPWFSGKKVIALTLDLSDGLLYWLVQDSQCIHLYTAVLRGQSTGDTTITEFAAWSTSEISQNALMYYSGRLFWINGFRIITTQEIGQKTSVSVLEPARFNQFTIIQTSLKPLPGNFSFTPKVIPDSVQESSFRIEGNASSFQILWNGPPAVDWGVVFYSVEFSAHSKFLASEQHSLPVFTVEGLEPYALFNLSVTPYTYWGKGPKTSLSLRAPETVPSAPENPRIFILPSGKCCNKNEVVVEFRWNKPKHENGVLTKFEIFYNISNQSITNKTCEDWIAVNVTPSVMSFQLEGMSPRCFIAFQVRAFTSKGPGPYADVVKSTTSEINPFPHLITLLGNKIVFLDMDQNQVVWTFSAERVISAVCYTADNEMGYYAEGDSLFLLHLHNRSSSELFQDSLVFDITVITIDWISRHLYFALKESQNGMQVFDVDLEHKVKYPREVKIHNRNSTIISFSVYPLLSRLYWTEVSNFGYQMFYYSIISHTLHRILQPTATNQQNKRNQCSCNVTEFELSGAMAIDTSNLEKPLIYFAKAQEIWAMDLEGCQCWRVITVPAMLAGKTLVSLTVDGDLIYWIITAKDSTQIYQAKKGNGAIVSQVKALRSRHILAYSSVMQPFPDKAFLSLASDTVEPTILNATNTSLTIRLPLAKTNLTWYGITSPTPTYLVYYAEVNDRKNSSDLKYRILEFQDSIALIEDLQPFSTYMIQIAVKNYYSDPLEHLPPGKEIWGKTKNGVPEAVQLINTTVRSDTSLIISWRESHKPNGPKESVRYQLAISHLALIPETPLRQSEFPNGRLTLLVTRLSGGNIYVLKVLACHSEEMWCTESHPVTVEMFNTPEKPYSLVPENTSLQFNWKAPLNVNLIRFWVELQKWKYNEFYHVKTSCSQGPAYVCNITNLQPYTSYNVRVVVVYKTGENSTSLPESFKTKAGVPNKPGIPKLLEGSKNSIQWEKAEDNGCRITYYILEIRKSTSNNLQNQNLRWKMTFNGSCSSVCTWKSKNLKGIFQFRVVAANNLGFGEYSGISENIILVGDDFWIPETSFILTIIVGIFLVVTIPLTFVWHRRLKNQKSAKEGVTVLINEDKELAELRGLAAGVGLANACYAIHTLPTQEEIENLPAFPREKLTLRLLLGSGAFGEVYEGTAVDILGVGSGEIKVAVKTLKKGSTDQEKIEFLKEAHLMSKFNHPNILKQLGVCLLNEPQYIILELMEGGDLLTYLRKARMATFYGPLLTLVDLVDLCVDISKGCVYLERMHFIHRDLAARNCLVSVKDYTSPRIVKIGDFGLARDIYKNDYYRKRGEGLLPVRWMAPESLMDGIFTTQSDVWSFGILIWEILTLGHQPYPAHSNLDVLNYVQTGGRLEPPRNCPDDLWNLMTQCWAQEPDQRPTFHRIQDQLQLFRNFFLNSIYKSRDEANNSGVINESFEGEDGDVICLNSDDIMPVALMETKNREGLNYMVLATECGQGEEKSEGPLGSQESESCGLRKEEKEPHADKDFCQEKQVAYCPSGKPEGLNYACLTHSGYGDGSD

TTK (human) = TTK (human) (UniProt P33981); conditions: compound 10.0 µM
TNNI3K (human) = TNNI3K (human) (UniProt Q59H18); conditions: compound 10.0 µM
MAPK9 (human) = MAPK9 (human) (UniProt P45984)
Sequence of MAPK9 (human) (P45984 whole entry, looked up): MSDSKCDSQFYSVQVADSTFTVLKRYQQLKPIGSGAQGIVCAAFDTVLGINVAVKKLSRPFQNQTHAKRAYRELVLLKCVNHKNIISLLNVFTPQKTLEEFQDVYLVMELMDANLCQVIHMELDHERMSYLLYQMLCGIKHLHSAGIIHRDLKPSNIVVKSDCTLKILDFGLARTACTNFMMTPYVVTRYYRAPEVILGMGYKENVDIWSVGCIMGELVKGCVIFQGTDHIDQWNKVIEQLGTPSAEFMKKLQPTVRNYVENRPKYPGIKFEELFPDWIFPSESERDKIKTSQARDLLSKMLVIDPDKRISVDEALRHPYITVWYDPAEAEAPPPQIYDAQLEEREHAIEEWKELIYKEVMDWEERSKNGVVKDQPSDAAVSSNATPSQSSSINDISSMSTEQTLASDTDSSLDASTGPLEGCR

[4] = tested on: EGFR (human), P00533 [L861Q]; conditions: compound 10.0 µM
FGFR2 (human) = FGFR2 (human) (UniProt P21802); conditions: compound 10.0 µM
Sequence of FGFR2 (human) (P21802 whole entry, looked up): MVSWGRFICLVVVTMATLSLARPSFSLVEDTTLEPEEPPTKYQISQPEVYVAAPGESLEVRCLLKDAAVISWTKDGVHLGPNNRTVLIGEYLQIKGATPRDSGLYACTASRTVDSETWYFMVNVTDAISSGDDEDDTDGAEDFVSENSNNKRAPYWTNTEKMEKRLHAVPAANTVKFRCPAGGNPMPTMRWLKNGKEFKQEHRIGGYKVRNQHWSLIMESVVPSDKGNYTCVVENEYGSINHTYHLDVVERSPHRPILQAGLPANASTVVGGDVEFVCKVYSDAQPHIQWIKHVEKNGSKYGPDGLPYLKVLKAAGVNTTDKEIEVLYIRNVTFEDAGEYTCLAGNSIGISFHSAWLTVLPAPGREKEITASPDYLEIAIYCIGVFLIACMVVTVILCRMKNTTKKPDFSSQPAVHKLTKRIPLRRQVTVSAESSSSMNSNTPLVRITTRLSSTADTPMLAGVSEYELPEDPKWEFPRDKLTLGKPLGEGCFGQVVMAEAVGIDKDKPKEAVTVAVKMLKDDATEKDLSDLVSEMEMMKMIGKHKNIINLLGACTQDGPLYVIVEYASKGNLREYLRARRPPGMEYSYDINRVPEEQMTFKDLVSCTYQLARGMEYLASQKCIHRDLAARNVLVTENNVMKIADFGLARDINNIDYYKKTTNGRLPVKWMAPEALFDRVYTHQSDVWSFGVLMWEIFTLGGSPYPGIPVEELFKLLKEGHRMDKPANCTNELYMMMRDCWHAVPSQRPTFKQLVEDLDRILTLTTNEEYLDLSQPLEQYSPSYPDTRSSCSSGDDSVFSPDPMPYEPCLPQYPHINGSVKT

CSNK1G2 (human) = CSNK1G2 (human) (UniProt P78368); conditions: compound 10.0 µM
MAP2K6 (human) = MAP2K6 (human) (UniProt P52564); conditions: compound 10.0 µM
MUSK (human) = MUSK (human) (UniProt O15146); conditions: compound 10.0 µM
TAOK3 (human) = TAOK3 (human) (UniProt Q9H2K8); conditions: compound 10.0 µM
CLK2 (human) = CLK2 (human) (UniProt P49760); conditions: compound 10.0 µM
RIOK1 (human) = RIOK1 (human) (UniProt Q9BRS2); conditions: compound 10.0 µM
MAP4K3 (human) = MAP4K3 (human) (UniProt Q8IVH8); conditions: compound 10.0 µM
STK17B (human) = STK17B (human) (UniProt O94768); conditions: compound 10.0 µM
EPHA5 (human) = EPHA5 (human) (UniProt P54756); conditions: compound 10.0 µM
Sequence of EPHA5 (human) (P54756 whole entry, looked up): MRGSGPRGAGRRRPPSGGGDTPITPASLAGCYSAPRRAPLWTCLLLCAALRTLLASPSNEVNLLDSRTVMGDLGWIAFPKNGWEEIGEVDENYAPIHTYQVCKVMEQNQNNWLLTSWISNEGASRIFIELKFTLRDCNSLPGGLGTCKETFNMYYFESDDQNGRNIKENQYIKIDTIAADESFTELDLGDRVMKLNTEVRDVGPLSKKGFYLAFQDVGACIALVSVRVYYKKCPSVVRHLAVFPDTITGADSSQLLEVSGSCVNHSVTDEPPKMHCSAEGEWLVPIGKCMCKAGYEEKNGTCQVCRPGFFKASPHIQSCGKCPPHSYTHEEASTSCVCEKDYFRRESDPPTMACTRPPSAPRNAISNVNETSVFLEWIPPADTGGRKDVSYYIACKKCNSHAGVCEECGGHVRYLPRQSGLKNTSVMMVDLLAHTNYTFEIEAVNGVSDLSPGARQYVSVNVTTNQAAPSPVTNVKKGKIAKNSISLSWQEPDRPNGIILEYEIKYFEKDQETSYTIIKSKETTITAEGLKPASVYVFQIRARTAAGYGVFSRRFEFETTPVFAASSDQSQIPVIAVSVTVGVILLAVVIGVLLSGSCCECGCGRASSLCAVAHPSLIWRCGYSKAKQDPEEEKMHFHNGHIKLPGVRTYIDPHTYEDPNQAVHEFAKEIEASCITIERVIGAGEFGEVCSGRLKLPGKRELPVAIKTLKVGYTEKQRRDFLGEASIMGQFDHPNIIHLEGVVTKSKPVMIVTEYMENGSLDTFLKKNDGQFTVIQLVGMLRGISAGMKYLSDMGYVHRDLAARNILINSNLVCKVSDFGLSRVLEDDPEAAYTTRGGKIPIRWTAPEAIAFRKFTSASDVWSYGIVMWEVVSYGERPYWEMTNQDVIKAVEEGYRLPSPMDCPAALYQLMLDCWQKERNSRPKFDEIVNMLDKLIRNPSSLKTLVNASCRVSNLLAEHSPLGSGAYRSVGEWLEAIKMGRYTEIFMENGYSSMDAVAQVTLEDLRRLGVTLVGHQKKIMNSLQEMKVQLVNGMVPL

WEE1 (human) = WEE1 (human) (UniProt P30291); conditions: compound 10.0 µM

Cc1ccc(NC(=O)c2ccc(NC(=O)/C=C/CN(C)C)cc2)cc1Nc1nccc(-c2cccnc2)n1
kinase still bound, per cent of control (EPHA4 (human)): 100% | kinase still bound, per cent of control (TIE1 (human)): 80% | kinase still bound, per cent of control [1]: 0% | kinase still bound, per cent of control (TNIK (human)): 43% | kinase still bound, per cent of control (CDK16 (human)): 100% | kinase still bound, per cent of control (MAP3K9 (human)): 100% | kinase still bound, per cent of control (CaMK1 (human)): 75% | kinase still bound, per cent of control (MST4 (human)): 53% | kinase still bound, per cent of control (NEK1 (human)): 100% | kinase still bound, per cent of control (MAPK12 (human)): 94% | kinase still bound, per cent of control (PIK3C2B (human)): 93% | kinase still bound, per cent of control (BMPR1A (human)): 81% | kinase still bound, per cent of control [2]: 100% | kinase still bound, per cent of control (EPHA3 (human)): 83% | kinase still bound, per cent of control (NEK6 (human)): 44% | kinase still bound, per cent of control (MAP3K1 (human)): 100% | kinase still bound, per cent of control (TAOK1 (human)): 46% | kinase still bound, per cent of control (CSNK1A1L (human)): 100% | kinase still bound, per cent of control [3]: 84% | kinase still bound, per cent of control (FLT4 (human)): 88% | kinase still bound, per cent of control (CDK13 (human)): 65% | kinase still bound, per cent of control (ERN1 (human)): 98% | kinase still bound, per cent of control (PAK2 (human)): 80% | kinase still bound, per cent of control (BMX (human)): 100% | kinase still bound, per cent of control (MAP4K2 (human)): 81% | kinase still bound, per cent of control (SNRK (human)): 92% | kinase still bound, per cent of control (ROS1 (human)): 100% | kinase still bound, per cent of control (TTK (human)): 83% | kinase still bound, per cent of control (TNNI3K (human)): 100% | Kd (MAPK9 (human)): 160 nM | kinase still bound, per cent of control (MAPK9 (human); compound 10.0 µM): 1.1% | kinase still bound, per cent of control [4]: 45% | kinase still bound, per cent of control (FGFR2 (human)): 100% | kinase still bound, per cent of control (CSNK1G2 (human)): 83% | kinase still bound, per cent of control (MAP2K6 (human)): 100% | kinase still bound, per cent of control (MUSK (human)): 99% | kinase still bound, per cent of control (TAOK3 (human)): 19% | kinase still bound, per cent of control (CLK2 (human)): 100% | kinase still bound, per cent of control (RIOK1 (human)): 34% | kinase still bound, per cent of control (MAP4K3 (human)): 78% | kinase still bound, per cent of control (STK17B (human)): 64% | kinase still bound, per cent of control (EPHA5 (human)): 97% | kinase still bound, per cent of control (WEE1 (human)): 100%
